Results on two molecules are retold here after patent US11980598B2, “N-(2-(substituted-naphth-1-yl)ethyl) substituted amide compound, preparation and uses thereof” (BEIJING GREATWAY PHARMACEUTICAL TECHNOLOGY CO., LTD., priority 2017, dated 2024).

For series [1], the system named is Kunming mice. The experiment in a line: Tail suspension test (TST) in mice. It is filed as in vivo, mouse. The settings on record: 10 mg/kg intraperitoneal, 3 days, last 4 of 6 min. The procedure:
Animals: Kunming mice, male, body weight 18-22 g, SPF grade; SD rats, male, body weight 150-180 g, SPF grade. The test was carried out after acclimatization, and the animal was fasted for 12 hours before the test.
All drugs for the test were suspended and dispersed in a 1% aqueous solution of hydroxypropyl methylcellulose (HPMC), and shaken well before use. […] The doses for administration were all 10 mg/kg. For the concentration and volume for administration, see J Psychiatry Neurosci 2004; 29(2):126-133. The mice were intraperitoneally administered in a volume of 0.5 mL/20 g; and the rats were administered by i.g. in a volume of 2 mL/100 g.
Mice were randomly divided into groups according to weight balance. Intraperitoneal injection was administered for three consecutive days, once a day, and the tail suspension test were performed 30 minutes after the third day. The tail suspension box was 25×25×35 cm, and a small clip was connected with a rope at the center of the top plate. An adhesive tape was stuck to the tail of the mouse 2 cm away from the tail end, and the adhesive tape was clamped with the clip to make the mouse in an inverted position. The duration of immobility was recorded during the last 4 minutes of total 6 minutes observed.

The subject of series [2] is Kunming mice. Put plainly: Acute toxicity test of mouse. The series is classed as in vivo. The procedure: Mice were administered by i.g. at doses of 5000 mg/kg and 2000 mg/kg. The drugs were dispersed with a 1% aqueous solution of hydroxypropyl methylcellulose (HPMC), and the administration volume was calculated in accordance with 0.2 mL/10 g.
Series [3] deals with chronic stress rat. Put plainly: Chronic unpredictable stress model of rat: novelty-suppressed feeding test. It is filed as in vivo. The settings on record: stress rats, day 31. As to the method:
Animals: SD rats, male, weighing 150-180 g, SPF grade.
Formulation and administration mode of drugs: All drugs for the test were suspended and dispersed with a 0.5% aqueous solution of CMC-Na, and shaken well before use. The rats were administered by i.g. at a volume of 10 mL/kg.
Rats were acclimatized for 3 days after purchase. First, 48 h of sucrose training was performed. After the training, a sucrose baseline test was performed. The rats were randomly and evenly grouped according to sucrose preference. Then, (dl) a 4-week chronic unpredictable stress (CUS) procedure was performed with the following stress methods: (1) food deprivation (fasting); (2) water deprivation; (3) stroboflash; (4) overnight illumination; (5) wet feeding (200 ml of water was added to 150 g of sawdust bedding); (6) noise stimulation (110 dB), 1 h; (7) swimming in cold water (the water temperature was 10° C.); (8) cage tilt (45 degrees of inclination); (9) tail pinch (at 1 cm away from the tail root) for 6 min; (10) restraint for 1-2 h. One of the above stress methods was used randomly every day, but water deprivation and fasting were separated. The corresponding drugs (including the blank control group and the positive drug group) were given 1 h before the stress in the morning every day. Behavior test was performed after the end of the chronic stress. d25, sucrose preference; d28, open-field; d31, novelty-suppressed feeding test.
On the 29th day of the stress program, the rats were fasted for 48 hours (not water deprivation) and then subjected to a novelty-suppressed feeding test (d31). The rats were placed in a novelty-suppressed feeding chamber with an open top. The bottom of the chamber was covered with a 2 cm thick sawdust. In the center of the chamber were placed 12 food balls of the same size. At the same time as the rats were put in, the latency of the rats to start eating within 5 min was calculated. The criterion for eating was that the animal started chewing food instead of just sniffing or toying with food. Rats that had not eaten within 5 minutes were recorded to have a feeding latency of 5 minutes. The test environment of the test should be kept as quiet as possible; the rats should be placed in the same position and direction each time; the environment of the test was preferably different from the breeding environment, and the light intensity of the test environment was greater than that of the breeding environment.

In series [4] the test system is SD rats. The experiment in a line: Acute toxicity test of rat. It is filed as in vivo. The note with it: for Acute reaction after single administration / Adverse reactions during 14-day observation / Body weight compared with the blank group: rats, 2000 mg/kg i.g. As to the method:
Rats were administered by i.g. at a dose of 2000 mg/kg. The drugs were dispersed with a 1% aqueous solution of hydroxypropyl methylcellulose (HPMC).

Series [5] in a line: In vitro metabolism study, human liver microsomal incubation system. The series is classed as in vitro ADME. The procedure: TSQ Quantum liquid chromatography-mass spectrometer (LC/MS/MS) from Finnigan Inc, USA, chromatography column: TSKgel Amide-80 column (2.0 mm I.D.×100 mm, 5 μm); mobile phase: acetonitrile-water-formic acid (50:50:0.1); flow rate: 0.2 mL/min; injection volume: 5 μL; column temperature: room temperature. Ionization source is electrospray ionization (ESI) with 4.8 KV of spray voltage; capillary temperature (TEM): 300° C.; sheath gas: N2, flow rate: 10 psi; auxiliary gas: N2, flow rate: 1 psi; collision gas (CID): Ar at a pressure of 1.5 mTorr. The mass spectrometry scanning method was selective reaction monitoring (SRM) and detected by positive ion method. The internal standard was a […] solution of aconitine in acetonitrile, the minimum limit of quantification was 5 ng/mL, and the correlation coefficient was >0.99.
Approximately 10 mg of each sample to be tested was accurately weighed, dissolved in 0.1 mL of DMSO, and serially diluted with purified water to a 10 μM, 1 μM standard stock solution. An ice bath was operated and the incubation system for detection was formulated according to Table 4. NADPH was added to the incubation system to start the reaction, and then 50 μL was immediately added to 150 μL acetonitrile as a zero-time sample and a 1 μM standard curve sample. Another 1 μM standard stock solution was added to the incubation system, and then 50 μL was immediately added to 150 μL acetonitrile as a 0.1 μM standard curve sample. […] Each sample was shaken, and centrifuged at 18000 g for 10 min. The supernatant was taken for LC/MS/MS injection and determination.

Setting [6] is: incubation time 0 min, 1 μM, 1 mg/mL microsome, 37° C.

Each structure is given as a SMILES string.

For `COc1ccc2cccc(CCNC(C)=O)c2c1` [Agomelatine, reference compound], the Immobility time in series [1] was found to be 75.1 ± 21.4 s. Moreover, the “Acute reaction after single administration” value in series [2] (mice, 2000 mg/kg i.g.) is “the mice all fell into a coma 15 minutes after the administration”; in series [2] (mice, 5000 mg/kg i.g.), “the mice all fell into a coma 15 minutes after the administration and died successively after 12 hours”; in series [4], 8 rats were slow to move or became lethargic, and all returned to normal within 2 hours. Further, the “Adverse reactions during 14-day observation” value is “no obvious adverse reactions within 14 days after the administration” in series [2] (mice, 2000 mg/kg i.g.) and “no obvious adverse reactions within 14 days after the administration” in series [4]. Further, the “Body weight compared with the blank group” value was “the body weight was lighter on the first and second days after the administration with a significant difference” in series [2] (mice, 2000 mg/kg i.g.); “no significant difference in body weight compared with the blank group” in series [4]. The “Number of mice that died within 12 hours” value in series [2] (mice, 2000 mg/kg i.g., group of 10) was 4 mice. For the same molecule, the Feeding latency is 248 ± 21 ^ s in series [3] (10 mg/kg i.g. daily), 164 ± 26 s in series [3] (20 mg/kg i.g. daily) and 130 ± 17 s in series [3] (40 mg/kg i.g. daily). Further, the “Concentration measured at incubation time point” value worked out at 999 ± 59 nM in series [5] (setting [6]), 539 ± 19 nM in series [5] (incubation time 5 min) and 9 ± 5 nM in series [5] (incubation time 15 min).
Consider `[2H]C([2H])([2H])Oc1cc2c(CCNC(C)=O)cccc2cc1Cl` [Example 1, N-(2-(6-chloro-7-deuteromethoxy-naphthalen-1-yl)ethyl)acetamide], for which the Immobility time in series [1] came to 55.7 ± 19.7 s. The “Acute reaction after single administration” value in series [2] (mice, 2000 mg/kg i.g.) was “the activity of the mice became slightly smaller but there were no obvious adverse reactions”; in series [2] (mice, 5000 mg/kg i.g.), “the mice began to fall into a coma 15 minutes after the administration, and within 24 hours the mice all awakened and returned to normal”; in series [4], “the activity of the rats became slightly smaller but there were no obvious adverse reactions”. In addition, the “Adverse reactions during 14-day observation” value is “no obvious adverse reactions within 14 days after the administration” in series [2] (mice, 2000 mg/kg i.g.); “no obvious adverse reactions within 14 days after the administration” in series [2] (mice, 5000 mg/kg i.g.); “no obvious adverse reactions within 14 days after the administration” in series [4]. In addition, the “Body weight compared with the blank group” value in series [2] (mice, 2000 mg/kg i.g.) is reported as “no significant difference in body weight compared with the blank group”; in series [2] (mice, 5000 mg/kg i.g.) it was “no significant difference in body weight compared with the blank group”; in series [4] it was “no significant difference in body weight compared with the blank group”. Besides, the “Safety compared with control drug” value in series [2] (mouse model, overall) is listed as “safer than the control drug Agomelatine”; in series [4] (rat model, overall), “safer than the control drug Agomelatine”. The Feeding latency is recorded as 188 ± 21 s in series [3] (5 mg/kg i.g. daily), 145 ± 23 s in series [3] (10 mg/kg i.g. daily), 115 ± 16 s in series [3] (20 mg/kg i.g. daily) and 117 ± 14 s in series [3] (40 mg/kg i.g. daily). The “Metabolic stability in human liver microsome (comparison)” value in series [5] (compared among examples and controls) is “highest metabolic stability”. Also, the “Concentration measured at incubation time point” value stood at 1001 ± 19 nM in series [5] (setting [6]), 793 ± 108 nM in series [5] (incubation time 5 min), 194 ± 46 nM in series [5] (incubation time 15 min) and 110 ± 88 nM in series [5] (incubation time 30 min).
